Test results taken from PubChem BioAssay (NCI).
Several values for one entry are separate records, joined by “and”; a condition that tells them apart may be missing. Identical values can stand only once.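 Step 1: Grow cells in 96-well plates. Step 2: Expose to compound for 48 hours at 5 concentrations. Step 3: Interpolate endpoints linearly; if unreached, use highest concentration. GI50 is the concentration that inhibits growth by half. The concentration for full growth arrest is given as TGI.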

Key:
Assay in all cases: inhibition of tumour cell growth, NCI panel, 48 h
786-0 renal = tested on: 786-0 renal
A498 renal = tested on: A498 renal
A549 NSCLC = tested on: A549 NSCLC
ACHN renal = tested on: ACHN renal
BT-549 breast = tested on: BT-549 breast
CAKI-1 renal = tested on: CAKI-1 renal
CCRF-CEM leukemia = tested on: CCRF-CEM leukemia
COLO 205 colon = tested on: COLO 205 colon
DU-145 prostate = tested on: DU-145 prostate
EKVX NSCLC = tested on: EKVX NSCLC
HCC-2998 colon = tested on: HCC-2998 colon
HCT-116 colon = tested on: HCT-116 colon
HCT-15 colon = tested on: HCT-15 colon
HL-60(TB) leukemia = tested on: HL-60(TB) leukemia
HOP-62 NSCLC = tested on: HOP-62 NSCLC
HOP-92 NSCLC = tested on: HOP-92 NSCLC
HS 578T breast = tested on: HS 578T breast
HT29 colon = tested on: HT29 colon
IGROV1 ovarian = tested on: IGROV1 ovarian
K-562 leukemia = tested on: K-562 leukemia
KM12 colon = tested on: KM12 colon
LOX IMVI melanoma = tested on: LOX IMVI melanoma
M14 melanoma = tested on: M14 melanoma
MALME-3M melanoma = tested on: MALME-3M melanoma
MCF7 breast = tested on: MCF7 breast
MDA-MB-231 breast = tested on: MDA-MB-231 breast
MDA-MB-435 = tested on: MDA-MB-435
MOLT-4 leukemia = tested on: MOLT-4 leukemia
NCI-H226 lung = tested on: NCI-H226 lung
NCI-H23 lung = tested on: NCI-H23 lung
NCI-H460 lung = tested on: NCI-H460 lung
NCI-H522 lung = tested on: NCI-H522 lung
NCI/ADR-RES ovarian = tested on: NCI/ADR-RES ovarian
OVCAR-3 ovarian = tested on: OVCAR-3 ovarian
OVCAR-4 ovarian = tested on: OVCAR-4 ovarian
OVCAR-5 ovarian = tested on: OVCAR-5 ovarian
OVCAR-8 ovarian = tested on: OVCAR-8 ovarian
PC-3 prostate = tested on: PC-3 prostate
RPMI-8226 leukemia = tested on: RPMI-8226 leukemia
RXF 393 renal = tested on: RXF 393 renal
SF-268 CNS = tested on: SF-268 CNS
SF-295 CNS = tested on: SF-295 CNS
SF-539 CNS = tested on: SF-539 CNS
SK-MEL-2 melanoma = tested on: SK-MEL-2 melanoma
SK-MEL-28 melanoma = tested on: SK-MEL-28 melanoma
SK-MEL-5 melanoma = tested on: SK-MEL-5 melanoma
SK-OV-3 ovarian = tested on: SK-OV-3 ovarian
SN12C renal = tested on: SN12C renal
SNB-19 CNS = tested on: SNB-19 CNS
SNB-75 CNS = tested on: SNB-75 CNS
SR leukemia = tested on: SR leukemia
SW-620 colon = tested on: SW-620 colon
T-47D breast = tested on: T-47D breast
TK-10 renal = tested on: TK-10 renal
U251 CNS = tested on: U251 CNS
UACC-257 melanoma = tested on: UACC-257 melanoma
UACC-62 melanoma = tested on: UACC-62 melanoma
UO-31 renal = tested on: UO-31 renal

In the case of `Nc1ccn(C2OC(CO)C(O)C2F)c(=O)n1` (stereo unspecified), the GI50 (786-0 renal) is reported as > 5 mM, the TGI (786-0 renal) is reported as > 5 mM and the GI50 (A498 renal) is reported as > 5 mM. For the same compound, the TGI (A498 renal) was > 5 mM, the GI50 (A549 NSCLC) was > 5 mM and the TGI (A549 NSCLC) was > 5 mM. For the same compound, the GI50 (ACHN renal) was > 5 mM, the TGI (ACHN renal) was > 5 mM and the GI50 (BT-549 breast) was > 5 mM. The TGI (BT-549 breast) was > 5 mM, the GI50 (CAKI-1 renal) was 0.582 mM and > 5 mM and the TGI (CAKI-1 renal) was > 5 mM. For the same compound, the GI50 (CCRF-CEM leukemia) was 0.00167 mM, the GI50 (COLO 205 colon) was 0.688 mM and the TGI (COLO 205 colon) was > 5 mM. For the same compound, the GI50 (DU-145 prostate) was > 5 mM, the TGI (DU-145 prostate) was > 5 mM and the GI50 (EKVX NSCLC) was > 5 mM. For the same compound, the TGI (EKVX NSCLC) was > 5 mM, the GI50 (HCC-2998 colon) was > 5 mM and the TGI (HCC-2998 colon) was > 5 mM. The GI50 (HCT-116 colon) was > 5 mM, the TGI (HCT-116 colon) was > 5 mM and the GI50 (HCT-15 colon) was > 5 mM. For the same compound, the TGI (HCT-15 colon) was > 5 mM, the GI50 (HL-60(TB) leukemia) was 0.189 mM and the GI50 (HOP-62 NSCLC) was > 5 mM. For the same compound, the TGI (HOP-62 NSCLC) was > 5 mM, the GI50 (HOP-92 NSCLC) was > 5 mM and the TGI (HOP-92 NSCLC) was > 5 mM. For the same compound, the GI50 (HS 578T breast) was > 5 mM, the TGI (HS 578T breast) was > 5 mM and the GI50 (HT29 colon) was > 5 mM. The TGI (HT29 colon) was > 5 mM, the GI50 (IGROV1 ovarian) was > 5 mM and the TGI (IGROV1 ovarian) was > 5 mM. For the same compound, the GI50 (K-562 leukemia) was > 5 mM, the TGI (K-562 leukemia) was > 5 mM and the GI50 (KM12 colon) was > 5 mM. For the same compound, the TGI (KM12 colon) was > 5 mM, the GI50 (LOX IMVI melanoma) was > 5 mM and the TGI (LOX IMVI melanoma) was > 5 mM. For the same compound, the GI50 (M14 melanoma) was > 5 mM, the TGI (M14 melanoma) was > 5 mM and the GI50 (MALME-3M melanoma) was > 5 mM. For the same compound, the TGI (MALME-3M melanoma) was > 5 mM, the GI50 (MCF7 breast) was 0.00298 mM and the TGI (MCF7 breast) was > 5 mM. For the same compound, the GI50 (MDA-MB-231 breast) was > 5 mM, the TGI (MDA-MB-231 breast) was > 5 mM and the GI50 (MDA-MB-435) was 0.867 mM and > 5 mM. The TGI (MDA-MB-435) was > 5 mM, the GI50 (MOLT-4 leukemia) was 0.00298 mM and the GI50 (NCI-H226 lung) was > 5 mM. For the same compound, the TGI (NCI-H226 lung) was > 5 mM, the GI50 (NCI-H23 lung) was > 5 mM and the TGI (NCI-H23 lung) was > 5 mM. The GI50 (NCI-H460 lung) was 0.81 mM and 0.773 mM, the TGI (NCI-H460 lung) was > 5 mM and the GI50 (NCI-H522 lung) was 3.99 mM. The TGI (NCI-H522 lung) was > 5 mM, the TGI (NCI/ADR-RES ovarian) was > 5 mM and the GI50 (OVCAR-3 ovarian) was > 5 mM. The TGI (OVCAR-3 ovarian) was > 5 mM, the GI50 (OVCAR-4 ovarian) was > 5 mM and the TGI (OVCAR-4 ovarian) was > 5 mM. The GI50 (OVCAR-5 ovarian) was > 5 mM, the TGI (OVCAR-5 ovarian) was > 5 mM and the GI50 (OVCAR-8 ovarian) was 0.0571 mM. For the same compound, the GI50 (PC-3 prostate) was > 5 mM, the TGI (PC-3 prostate) was > 5 mM and the GI50 (RPMI-8226 leukemia) was > 5 mM. For the same compound, the TGI (RPMI-8226 leukemia) was > 5 mM, the GI50 (RXF 393 renal) was > 5 mM and the TGI (RXF 393 renal) was > 5 mM. The GI50 (SF-268 CNS) was > 5 mM, the TGI (SF-268 CNS) was > 5 mM and the GI50 (SF-295 CNS) was > 5 mM. The TGI (SF-295 CNS) was > 5 mM, the GI50 (SF-539 CNS) was > 5 mM and the TGI (SF-539 CNS) was > 5 mM. The GI50 (SK-MEL-2 melanoma) was > 5 mM, the TGI (SK-MEL-2 melanoma) was > 5 mM and the GI50 (SK-MEL-28 melanoma) was > 5 mM. The TGI (SK-MEL-28 melanoma) was > 5 mM, the GI50 (SK-MEL-5 melanoma) was > 5 mM and the TGI (SK-MEL-5 melanoma) was > 5 mM. The GI50 (SK-OV-3 ovarian) was > 5 mM, the TGI (SK-OV-3 ovarian) was > 5 mM and the GI50 (SN12C renal) was > 5 mM. The TGI (SN12C renal) was > 5 mM, the GI50 (SNB-19 CNS) was 0.0195 mM and the TGI (SNB-19 CNS) was > 5 mM. For the same compound, the GI50 (SNB-75 CNS) was > 5 mM, the TGI (SNB-75 CNS) was > 5 mM and the GI50 (SR leukemia) was 0.412 mM and 2.5 mM. For the same compound, the TGI (SR leukemia) was > 5 mM, the GI50 (SW-620 colon) was > 5 mM and the TGI (SW-620 colon) was > 5 mM. For the same compound, the GI50 (T-47D breast) was > 5 mM, the TGI (T-47D breast) was > 5 mM and the GI50 (TK-10 renal) was > 5 mM. For the same compound, the TGI (TK-10 renal) was > 5 mM, the GI50 (U251 CNS) was > 5 mM and the TGI (U251 CNS) was > 5 mM. For the same compound, the GI50 (UACC-257 melanoma) was > 5 mM, the TGI (UACC-257 melanoma) was > 5 mM and the GI50 (UACC-62 melanoma) was > 5 mM. For the same compound, the TGI (UACC-62 melanoma) was > 5 mM, the GI50 (UO-31 renal) was > 5 mM and the TGI (UO-31 renal) was > 5 mM.
